Data on 13 compounds can be found in patent publication US9193695B2, “1, 2, 4-triazolone derivative and use thereof as an antagonist on the arginine-vasopressin 1B receptor” (TAISHO PHARMACEUTICAL CO., LTD., priority 2010, dated 2015).

Assay [1] deals with T1, Human V1b receptor (Homo sapiens, UniProt P47901).
T1 sequence (P47901 1-424): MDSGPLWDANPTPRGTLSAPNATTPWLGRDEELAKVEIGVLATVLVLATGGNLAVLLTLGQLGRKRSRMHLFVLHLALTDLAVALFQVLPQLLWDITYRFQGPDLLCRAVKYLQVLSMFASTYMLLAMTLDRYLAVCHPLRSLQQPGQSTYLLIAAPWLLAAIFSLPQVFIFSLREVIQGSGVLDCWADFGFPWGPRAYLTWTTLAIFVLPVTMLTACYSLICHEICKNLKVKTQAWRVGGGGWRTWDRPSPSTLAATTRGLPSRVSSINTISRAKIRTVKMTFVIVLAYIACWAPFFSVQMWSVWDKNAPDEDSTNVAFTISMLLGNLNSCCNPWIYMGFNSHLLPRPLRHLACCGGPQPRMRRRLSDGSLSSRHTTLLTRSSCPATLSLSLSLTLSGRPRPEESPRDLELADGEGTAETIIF
Briefly: Binding test for V1b receptor ([3H]AVP displacement, crude membrane preparation). More on the design: expressed in transfected cells; host or cells: 293FT cells (Invitrogen), transient expression; crude membrane preparation. To be noted: [3H]AVP 0.4 to 1 nmol/L; membranes of 293FT cells transiently expressing human V1b receptor; room temperature, 60 minutes. The method, boiled down: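 Crude membranes from 293FT cells transiently expressing human V1b, in 50 mmol/L Tris-HCl pH 7.4 with 10 mmol/L MgCl2 and 0.1% BSA, incubated with compound (0.01 nmol/L–1 μmol/L) and [3H]AVP (0.4–1 nmol/L) for 60 min at room temperature. Filter-bound radioactivity counted; 10 μmol/L unlabeled AVP defined 0%. IC50 from dose-response curve.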

Assay [2] deals with T1, Human V1b receptor. Description: Measurement of V1b receptor antagonistic activity (AVP-induced fluorescence, Fluo-4, FDSS). Type of assay: cell-based. Set-up: expressed in transfected cells. On the procedure:
Measurement of V1b Receptor Antagonistic Activity
CHO cells (ATCC) stably expressing human V1b receptor were cultured in Ham's F-12 medium (containing 10% FBS and 0.5 mg/mL Geneticin). The cells were seeded the day before the test at 20,000 cells/well in a 96-well poly-D-lysine coated black plate. On the day of the test, the culture medium was removed, and a loading solution (1×HBSS, 10 mmol/L HEPES, 0.1% bovine serum albumin, 1.25 mmol/L Probenecid, 0.02% Pluronic F-127, 1.5 μmol/L Fluo-4-AM, pH 7.4) was added to each well, followed by incubation in a CO2 incubator for 1 hour. After the incubation, the loading solution was removed. A test solution (1×HBSS, 10 mmol/L HEPES, 0.1% bovine serum albumin, 1.25 mmol/L Probenecid, pH 7.4) containing any one of test compounds was added to wells, followed by incubation in a CO2 incubator for 30 minutes. The test compound was serially diluted with DMSO so as to be assayed at a final concentration of 0.1 nmol/L to 1 μmol/L. After the incubation, measurement of fluorescence intensity levels and addition of AVP were performed with Functional Drug Screening System (FDSS, Hamamatsu Photonics K.K.). […] The fluorescence level in the well not containing any test compound and AVP was defined as 0%, and the fluorescence level in the well not containing any test compound but containing AVP was defined as 100%. A dose-response curve was plotted from fluorescence levels after the addition of AVP in the presence of a test compound at various concentrations, and the 50% inhibitory concentration (IC50 value) of the compound was calculated.

[3] abbreviates: CHO cells stably expressing human V1b receptor, AVP 2.5 nmol/L, 30 minutes preincubation, read-out: IC50 value (V1b receptor antagonistic activity).

Molecules are shown by their SMILES.

As usually defined, the IC50 is the midpoint of a concentration-inhibition curve. In the case of `CC(C)NC(=O)Cn1c(-c2cccc(Cl)c2)nn(-c2ccc(CCN3CCOCC3)cc2)c1=O` [Aa-1, 2-[3-(3-Chlorophenyl)-1-{4-[2-(morpholin-4-yl)ethyl]phenyl}-5-oxo-1,5-dihydro-4H-1,2,4-triazol-4-yl]-N-(propan-2-yl)acetamide], the half-inhibitory concentration (IC50) on Human V1b receptor [1] turned out to be 8.6 nM; on Human V1b receptor [2] (setting [3]) it was 9.3 nM.

Take `CC(C)NC(=O)Cn1c(-c2cccc(Cl)c2)nn(-c2ccc(CCN3C4CCC3CC(O)C4)cc2)c1=O` (stereo not shown) [Aa-8, 2-[3-(3-Chlorophenyl)-1-{4-[2-(3-hydroxy-8-azabicyclo[3.2.1]oct-8-yl)ethyl]phenyl}-5-oxo-1,5-dihydro-4H-1,2,4-triazol-4-yl]-N-(propan-2-yl)acetamide]: the results for the IC50 at Human V1b receptor [1] and on Human V1b receptor [2] (setting [3]) were 4.1 nM and 23 nM, respectively.

Take `CC(C)NC(=O)Cn1c(-c2cccc(Cl)c2)nn(-c2ccc(CCN3C4CCC3COC4)cc2)c1=O` [Aa-10, 2-[3-(3-Chlorophenyl)-1-{4-[2-(3-oxa-8-azabicyclo[3.2.1]oct-8-yl)ethyl]phenyl}-5-oxo-1,5-dihydro-4H-1,2,4-triazol-4-yl]-N-(propan-2-yl)acetamide]: the IC50 was determined as 4.7 nM on Human V1b receptor [1] and 20 nM against Human V1b receptor [2].

For the compound `CC(C)NC(=O)Cn1c(-c2cccc(Cl)c2)nn(-c2ccc(CCN3CCOCC3)cn2)c1=O` [Ab-2, 2-[3-(3-Chlorophenyl)-1-{5-[2-(morpholin-4-yl)ethyl]pyridin-2-yl}-5-oxo-1,5-dihydro-4H-1,2,4-triazol-4-yl]-N-(propan-2-yl)acetamide], the IC50 came to 41 nM on Human V1b receptor [1] and 13 nM on Human V1b receptor [2] (setting [3]).

With `CC(C)NC(=O)Cn1c(-c2cccc(Cl)c2)nn(-c2ccc(CCN3C4CCC3COC4)cn2)c1=O` [Ab-5, 2-[3-(3-Chlorophenyl)-1-{5-[2-(3-oxa-8-azabicyclo[3.2.1]oct-8-yl)ethyl]pyridin-2-yl}-5-oxo-1,5-dihydro-4H-1,2,4-triazol-4-yl]-N-(propan-2-yl)acetamide], the values for the IC50 on Human V1b receptor [1] and on Human V1b receptor [2] (setting [3]) were 8.6 nM and 29 nM, respectively.

For `COc1cccc(-c2nn(-c3ccc(CCN4CCOCC4)cc3)c(=O)n2CC(=O)NC(C)C)c1` [Ba-2, 2-[3-(3-Methoxyphenyl)-1-{4-[2-(morpholin-4-yl)ethyl]phenyl}-5-oxo-1,5-dihydro-4H-1,2,4-triazol-4-yl]-N-(propan-2-yl)acetamide], the IC50 was determined as 19 nM on Human V1b receptor [1] and 30 nM at Human V1b receptor [2] (setting [3]).

Consider `COc1cc(-c2nn(-c3ccc(CCN4CCOCC4)cc3)c(=O)n2CC(=O)NC(C)C)ccc1F` [Ca-2, 2-[3-(4-Fluoro-3-methoxyphenyl)-1-{4-[2-(morpholin-4-yl)ethyl]phenyl}-5-oxo-1,5-dihydro-4H-1,2,4-triazol-4-yl]-N-(propan-2-yl)acetamide], for which the IC50 at Human V1b receptor [1] came to 10 nM; at Human V1b receptor [2] (setting [3]), 11 nM.

Turning to `COc1cc(-c2nn(-c3ccc(CCN4C5CCC4CC(O)C5)cc3)c(=O)n2CC(=O)NC(C)C)ccc1F` (stereo not shown) [Ca-3, 2-[3-(4-Fluoro-3-methoxyphenyl)-1-{4-[2-(3-hydroxy-8-azabicyclo[3.2.1]oct-8-yl)ethyl]phenyl}-5-oxo-1,5-dihydro-4H-1,2,4-triazol-4-yl]-N-(propan-2-yl)acetamide], the IC50 at Human V1b receptor [1] stood at 6 nM; on Human V1b receptor [2] (setting [3]), 16 nM.

For `COc1cc(-c2nn(-c3ccc(CCN4CCOCC4)cn3)c(=O)n2CC(=O)NC(C)C)ccc1F` [Cb-2, 2-[3-(4-Fluoro-3-methoxyphenyl)-1-{5-[2-(morpholin-4-yl)ethyl]pyridin-2-yl}-5-oxo-1,5-dihydro-4H-1,2,4-triazol-4-yl]-N-(propan-2-yl)acetamide], the IC50 at Human V1b receptor [1] stood at 17 nM; on Human V1b receptor [2] (setting [3]) it was 26 nM.

Turning to `CC(C)NC(=O)Cn1c(-c2ccc(F)c(Cl)c2)nn(-c2ccc(CCN3CCOCC3)cc2)c1=O` [Da-2, 2-[3-(3-Chloro-4-fluorophenyl)-1-{4-[2-(morpholin-4-yl)ethyl]phenyl}-5-oxo-1,5-dihydro-4H-1,2,4-triazol-4-yl]-N-(propan-2-yl)acetamide], the IC50 on Human V1b receptor [1] was found to be 4.3 nM; on Human V1b receptor [2] (setting [3]) it was 6.3 nM.

In the case of `CC(C)NC(=O)Cn1c(-c2ccc(F)c(Cl)c2)nn(-c2ccc(CCN3C4CCC3COC4)cc2)c1=O` [Da-5, 2-[3-(3-Chloro-4-fluorophenyl)-1-{4-[2-(3-oxa-8-azabicyclo[3.2.1]oct-8-yl)ethyl]phenyl}-5-oxo-1,5-dihydro-4H-1,2,4-triazol-4-yl]-N-(propan-2-yl)acetamide], the values for the IC50 on Human V1b receptor [1] and on Human V1b receptor [2] (setting [3]) were 2.5 nM and 6 nM, respectively.

Take `CC(C)NC(=O)Cn1c(-c2ccc(F)c(Cl)c2)nn(-c2ccc(CCN3C4CCC3CC(O)C4)cc2)c1=O` (stereo not shown) [Da-6, 2-[3-(3-Chloro-4-fluorophenyl)-1-{4-[2-(3-hydroxy-8-azabicyclo[3.2.1]oct-8-yl)ethyl]phenyl}-5-oxo-1,5-dihydro-4H-1,2,4-triazol-4-yl]-N-(propan-2-yl)acetamide]: the IC50 at Human V1b receptor [1] came to 4.4 nM; against Human V1b receptor [2], 12 nM.

At Human V1b receptor [1], `COc1cccc(-c2nn(-c3ccc(CCN4C5CCC4COC5)cc3)c(=O)n2CC(=O)NC(C)C)n1` [Ja-2, 2-[3-(6-Methoxypyridin-2-yl)-1-{4-[2-(3-oxa-8-azabicyclo[3.2.1]oct-8-yl)ethyl]phenyl}-5-oxo-1,5-dihydro-4H-1,2,4-triazol-4-yl]-N-(propan-2-yl)acetamide] yielded an IC50 of 20 nM.
